Results as given in ChEMBL document CHEMBL1201862, “PubChem BioAssay data set” (2004).
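Following 48 hours of exposure in 96-well plates, responses at five concentrations were used to interpolate endpoints linearly. Abbreviation: GI50, concentration required for 50% inhibition of growth.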 Active and inactive are the calls of the source. Rule as the data show it: active = GI50 up to about 1.1 µM and inactive = higher.

Key:
Test in all cases: DTP human tumour cell line panel, 48 h
[1] = system: SF-268
[2] = system: OVCAR-8
[3] = system: SK-MEL-28
[4] = system: UO-31
[5] = system: IGROV-1
[6] = system: HT-29
[7] = system: SNB-75
[8] = system: SK-MEL-2
[9] = system: SF-295
[10] = system: HCT-15
[11] = system: A549
[12] = system: CAKI-1
[13] = system: NCI/ADR-RES
[14] = system: OVCAR-5
[15] = system: UACC-257
[16] = system: LOX IMVI
[17] = system: MOLT-4
[18] = system: KM12
[19] = system: TK-10
[20] = system: M14

Row | Compound | GI50 [1] | GI50 [2] | GI50 [3] | GI50 [4] | GI50 [5] | GI50 [6] | GI50 [7] | GI50 [8] | GI50 [9] | GI50 [10] | GI50 [11] | GI50 [12] | GI50 [13] | GI50 [14] | GI50 [15] | GI50 [16] | GI50 [17] | GI50 [18] | GI50 [19] | GI50 [20]
1 | COc1cc(CCCOC2OC(COC3OCC(O)C(O)C3O)C(O)C(O)C2O)cc2cc(-c3ccc4c(c3)OCO4)oc12 (stereo unspecified) | > 175 µM (inactive) | 94.6 µM (inactive) | > 175 µM (inactive) | > 175 µM (inactive) | > 175 µM (inactive) | > 175 µM (inactive) | > 175 µM (inactive) | > 175 µM (inactive) | > 175 µM (inactive) | > 175 µM | > 175 µM (inactive) | > 175 µM (inactive) | > 175 µM (inactive) | > 175 µM (inactive) | > 175 µM (inactive) | > 175 µM (inactive) | > 175 µM (inactive) | > 175 µM (inactive) |  | 
2 | CC(C)(C)[Si](C)(C)OCC1OC(n2cnc3c(N)ncnc32)CC1OS(C)(=O)=O (stereo unspecified) |  | > 100 µM (inactive) | > 100 µM (inactive) | 51.4 µM (inactive) | > 100 µM (inactive) | > 100 µM (inactive) |  | > 100 µM (inactive) | > 100 µM (inactive) | > 100 µM |  | > 100 µM (inactive) | > 100 µM (inactive) | 89.1 µM (inactive) | > 100 µM (inactive) | > 100 µM (inactive) | > 100 µM (inactive) | > 100 µM (inactive) | 42 µM (inactive) | 21.7 µM (inactive)
3 | Oc1c(CNCCCN2CCCC2)cc(Cl)c2cccnc12 | 3.27 µM (inactive) | 3.24 µM (inactive) | 11.2 µM (inactive) | 3.76 µM (inactive) | 6.85 µM (inactive) | 5.3 µM (inactive) | 13 µM (inactive) | 11.1 µM (inactive) | 2.19 µM (inactive) | 2.09 µM | 3.14 µM (inactive) | 3.03 µM (inactive) | 1.48 µM (inactive) | 2.52 µM (inactive) | 11.4 µM (inactive) | 3.01 µM (inactive) | 2.77 µM (inactive) | 4.05 µM (inactive) |  | 
4 | CN1c2ccccc2C(=O)NC12CCN(CCCC(=O)c1ccc(F)cc1)CC2 | 17.8 µM (inactive) | > 100 µM (inactive) | 70.1 µM (inactive) | 80.4 µM (inactive) | > 100 µM (inactive) | 23.1 µM (inactive) | 71.6 µM (inactive) | > 100 µM (inactive) | 73.5 µM (inactive) | > 100 µM | > 100 µM (inactive) | 82.4 µM (inactive) | > 100 µM (inactive) | > 100 µM (inactive) | 29 µM (inactive) |  | 21.1 µM (inactive) | > 100 µM (inactive) |  | 15.5 µM (inactive)
5 | Cc1ccc2cc3cccc(C(=O)NCCN(C)C)c3nc2c1 | 1.08 µM (active) | 0.631 µM (active) | 1.63 µM (inactive) | 0.839 µM (active) | 1.42 µM (inactive) | 0.449 µM (active) | 1.33 µM (inactive) | 1.87 µM (inactive) | 0.832 µM (active) | 0.955 µM | 0.644 µM (active) | 0.275 µM (active) | 0.771 µM (active) | 1.47 µM (inactive) | 0.946 µM (active) | 0.818 µM (active) | 0.321 µM (active) | 1.54 µM (inactive) |  | 
6 | COC(=O)C1=C(C)N2CCOC2(C)C(C(=O)OC)C1c1ccc[nH]1 (stereo unspecified) | > 100 µM (inactive) | > 100 µM (inactive) | > 100 µM (inactive) | > 100 µM (inactive) | > 100 µM (inactive) | > 100 µM (inactive) | 18.7 µM (inactive) | > 100 µM (inactive) | > 100 µM (inactive) |  | > 100 µM (inactive) | > 100 µM (inactive) |  |  | > 100 µM (inactive) |  | > 100 µM (inactive) | > 100 µM (inactive) | > 100 µM (inactive) | > 100 µM (inactive)
7 | O=C1OC(c2ccccc2)=N/C1=C\c1ccc(Oc2ccc(Cl)c(Cl)c2)cc1 | 23.1 µM (inactive) | 21.2 µM (inactive) | > 10 µM (inactive) | 21.8 µM (inactive) | > 100 µM (inactive) | 69 µM (inactive) |  | 50.5 µM (inactive) | 76.4 µM (inactive) | 43.2 µM | 43.1 µM (inactive) |  |  | > 100 µM (inactive) | > 100 µM (inactive) |  | 20.7 µM (inactive) | 50 µM (inactive) | > 100 µM (inactive) | 49.5 µM (inactive)
8 | O=C(OCc1ccccc1)C(Cc1ccccc1)N(Cc1ccccc1)Cc1ccccc1 (stereo unspecified) | > 100 µM (inactive) | > 100 µM (inactive) | > 100 µM (inactive) | 59 µM (inactive) | > 100 µM (inactive) | > 100 µM (inactive) | 16.5 µM (inactive) | > 100 µM (inactive) | > 100 µM (inactive) | 43.7 µM | 65.9 µM (inactive) | > 100 µM (inactive) |  | > 100 µM (inactive) | 9.42 µM (inactive) |  | 18.5 µM (inactive) | > 100 µM (inactive) | > 100 µM (inactive) | > 100 µM (inactive)
9 | CC(=O)OC1CC2(O)C(CCC3(C)C(c4ccc(=O)oc4)CCC32O)C2(C)C1=CC(O)C1OC12 (stereo unspecified) | 0.0295 µM (active) | 0.0349 µM (active) | 0.0621 µM (active) | 0.0713 µM (active) | 0.0653 µM (active) | 0.135 µM (active) | 0.0624 µM (active) | 0.0724 µM (active) | 0.0366 µM (active) | 0.053 µM | 0.028 µM (active) | 0.0324 µM (active) | 0.0378 µM (active) | 0.239 µM (active) | 0.0441 µM (active) | 0.0687 µM (active) | 0.0281 µM (active) | 0.067 µM (active) |  | 
10 | Cc1cc(C)cc(Sc2c([N+](=O)[O-])ncn2C)c1 | 14.9 µM (inactive) | 12.8 µM (inactive) | 15.2 µM (inactive) | 13.7 µM (inactive) | 20.8 µM (inactive) | 16.2 µM (inactive) | 21.3 µM (inactive) | 10.6 µM (inactive) | 21.9 µM (inactive) |  | 26.6 µM (inactive) | 25.9 µM (inactive) |  | 16.9 µM (inactive) | 14.2 µM (inactive) | 11.5 µM (inactive) | 5.79 µM (inactive) | 18.9 µM (inactive) | 23 µM (inactive) | 14 µM (inactive)
11 | Cc1ccc(S(=O)(=O)N(CC(=O)O)c2ccccc2)cc1 | > 100 µM (inactive) | > 100 µM (inactive) | > 100 µM (inactive) | > 100 µM (inactive) | > 100 µM (inactive) | > 100 µM (inactive) | > 100 µM (inactive) | > 100 µM (inactive) | > 100 µM (inactive) | > 100 µM | > 100 µM (inactive) | > 100 µM (inactive) |  | > 100 µM (inactive) | > 100 µM (inactive) | > 100 µM (inactive) | > 100 µM (inactive) | > 100 µM (inactive) | > 100 µM (inactive) | > 100 µM (inactive)
12 | COC(=S)OC1CC(n2cnc3c(N)ncnc32)OC1CO[Si](C)(C)C(C)(C)C (stereo unspecified) |  | 24.3 µM (inactive) | 28.8 µM (inactive) | 16.6 µM (inactive) | 17.6 µM (inactive) | 16.5 µM (inactive) |  | 22.6 µM (inactive) | 17.1 µM (inactive) | 16.8 µM |  | > 10 µM (inactive) | 22.4 µM (inactive) | 20.6 µM (inactive) | 21.3 µM (inactive) | 39.7 µM (inactive) | 5.24 µM (inactive) | 23.7 µM (inactive) | 33.3 µM (inactive) | 16.4 µM (inactive)
13 | COc1ccc(OC)c(SC(CC(=O)c2ccccc2)c2ccccc2)c1 (stereo unspecified) | 19.1 µM (inactive) | 11.3 µM (inactive) | 17.5 µM (inactive) | 12.1 µM (inactive) | 11 µM (inactive) | 8.24 µM (inactive) | 18.4 µM (inactive) | 20.1 µM (inactive) | 15.2 µM (inactive) | 17.5 µM | 27.9 µM (inactive) | 13.9 µM (inactive) | 17.7 µM (inactive) | 18.4 µM (inactive) | 15.9 µM (inactive) |  | 0.877 µM (active) | 4.06 µM (inactive) | 17.2 µM (inactive) | 16.7 µM (inactive)
14 | O=P1(c2ccccc2)Nc2ccccc2SSc2ccccc2N1 | 17.5 µM (inactive) | 18.2 µM (inactive) | 18.7 µM (inactive) | 14.1 µM (inactive) | 19.7 µM (inactive) | 19.2 µM (inactive) | 20.4 µM (inactive) | 16.7 µM (inactive) | 14.9 µM (inactive) | 17 µM | 19.6 µM (inactive) | 18.2 µM (inactive) | 19.9 µM (inactive) | 21.2 µM (inactive) | 15.8 µM (inactive) | 16.2 µM (inactive) | 18.7 µM (inactive) | 16.7 µM (inactive) |  | 
15 | Cc1cc(S(=O)(=O)Nc2nc(Nc3ccccc3)n[nH]2)c(SSc2cc(Cl)c(C)cc2S(=O)(=O)Nc2nc(Nc3ccccc3)n[nH]2)cc1Cl | 86.7 µM (inactive) | > 100 µM (inactive) | > 100 µM (inactive) | > 100 µM (inactive) | > 100 µM (inactive) | 98.2 µM (inactive) | > 100 µM (inactive) |  | > 100 µM (inactive) | > 100 µM | > 100 µM (inactive) | 90.4 µM (inactive) | > 100 µM (inactive) | > 100 µM (inactive) | > 100 µM (inactive) | > 100 µM (inactive) | 35.7 µM (inactive) | > 100 µM (inactive) | 90.8 µM (inactive) | > 100 µM (inactive)
16 | COc1cccc(C2C(C(=O)O)=C(CO)Oc3cc4c(cc32)OCO4)c1OC (stereo unspecified) | > 100 µM (inactive) | > 100 µM (inactive) | > 100 µM (inactive) | > 100 µM (inactive) | > 100 µM (inactive) |  | > 100 µM (inactive) | > 100 µM (inactive) | > 100 µM (inactive) | > 100 µM |  | > 100 µM (inactive) |  |  |  | > 100 µM (inactive) | > 100 µM (inactive) |  | > 100 µM (inactive) | > 100 µM (inactive)
